Values quoted from earlier work as cited in US8263638B2, “Dosing regimens for ion channel modulating compounds” (priority 2004, dated 2012).
Like-named read-outs stand apart in the source and are kept apart here.

System: rabbit Purkinje fibers
Conditions: cited from earlier work

Structure (SMILES)	increase of APD90 (10 μM, rabbit)	increase of APD90 (10 nM, rabbit Purkinje fibers, BCL=1000 ms)
C=C[C@H]1C[N@@]2CC[C@H]1C[C@@H]2[C@@H](O)c1ccnc2ccc(OC)cc12 [quinidine]	93%	–
CN(CCOc1ccc(NS(C)(=O)=O)cc1)CCc1ccc(NS(C)(=O)=O)cc1 [dofetilide]	–	83%
